Reference: PubChem BioAssay (NCI)
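At the GI50, growth is halved. TGI: total growth inhibition.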

Columns and labels:
Experiment in all cases: NCI tumour cell line growth inhibition, 384-well format
SF-539 CNS = system: SF-539 CNS
HL-60(TB) leukemia = system: HL-60(TB) leukemia
HS 578T breast = system: HS 578T breast
NCI-H460 NSCLC = system: NCI-H460 NSCLC
OVCAR-5 ovarian = system: OVCAR-5 ovarian
SK-MEL-2 melanoma = system: SK-MEL-2 melanoma
IGROV1 ovarian = system: IGROV1 ovarian
MDA-MB-231 breast = system: MDA-MB-231 breast
SW-620 colon = system: SW-620 colon
SNB-75 CNS = system: SNB-75 CNS
UO-31 renal = system: UO-31 renal
CAKI-1 renal = system: CAKI-1 renal
NCI-H522 lung = system: NCI-H522 lung
COLO 205 colon = system: COLO 205 colon
HCT-15 colon = system: HCT-15 colon
SF-295 CNS = system: SF-295 CNS
PC-3 prostate = system: PC-3 prostate
HCT-116 colon = system: HCT-116 colon
SNB-19 CNS = system: SNB-19 CNS
NCI-H23 lung = system: NCI-H23 lung
U251 glioblastoma = system: U251 glioblastoma
HOP-62 NSCLC = system: HOP-62 NSCLC
SN12C renal = system: SN12C renal
786-0 renal = system: 786-0 renal
NCI-H226 lung = system: NCI-H226 lung
SK-MEL-5 melanoma = system: SK-MEL-5 melanoma
SF-268 CNS = system: SF-268 CNS
SR leukemia = system: SR leukemia
MOLT-4 leukemia = system: MOLT-4 leukemia
SK-OV-3 ovarian = system: SK-OV-3 ovarian
KM12 colon = system: KM12 colon
DU-145 prostate = system: DU-145 prostate
UACC-62 melanoma = system: UACC-62 melanoma
T-47D breast = system: T-47D breast
K-562 leukemia = system: K-562 leukemia
A549 NSCLC = system: A549 NSCLC
UACC-257 melanoma = system: UACC-257 melanoma
MDA-MB-435 melanoma = system: MDA-MB-435 melanoma
BT-549 breast = system: BT-549 breast
HT29 colon = system: HT29 colon
OVCAR-3 ovarian = system: OVCAR-3 ovarian
OVCAR-4 ovarian = system: OVCAR-4 ovarian
MCF7 breast = system: MCF7 breast
NCI-H322M lung = system: NCI-H322M lung
HOP-92 NSCLC = system: HOP-92 NSCLC
M14 melanoma = system: M14 melanoma
TK-10 renal = system: TK-10 renal
MALME-3M melanoma = system: MALME-3M melanoma
OVCAR-8 ovarian = system: OVCAR-8 ovarian
MDA-MB-468 breast = system: MDA-MB-468 breast
EKVX NSCLC = system: EKVX NSCLC
SK-MEL-28 melanoma = system: SK-MEL-28 melanoma
RXF 393 renal = system: RXF 393 renal

With `C=CCn1c(=O)c2cnc(Nc3ccc(N4CCN(C)CC4)cc3)nc2n1-c1ccc2c(n1)[C@@](O)(CC)CC2` the GI50 (SF-539 CNS) was 49.5 nM, the TGI (SF-539 CNS) was 194 nM and the GI50 (HL-60(TB) leukemia) was 110 nM. It also gave a TGI (HL-60(TB) leukemia) of 233 nM, a GI50 (HS 578T breast) of 83 nM and a TGI (HS 578T breast) of 445 nM. The GI50 (NCI-H460 NSCLC) was 139 nM, the TGI (NCI-H460 NSCLC) was 806 nM and the GI50 (OVCAR-5 ovarian) was 920 nM. The TGI (OVCAR-5 ovarian) was 14400 nM, the GI50 (SK-MEL-2 melanoma) was 124 nM and the TGI (SK-MEL-2 melanoma) was 352 nM. For the same compound, the GI50 (IGROV1 ovarian) was 95.3 nM, the TGI (IGROV1 ovarian) was 1350 nM and the GI50 (MDA-MB-231 breast) was 395 nM. It also gave a TGI (MDA-MB-231 breast) of 10100 nM, a GI50 (SW-620 colon) of 280 nM and a TGI (SW-620 colon) of 1950 nM. The GI50 (SNB-75 CNS) was 1070 nM, the TGI (SNB-75 CNS) was 8160 nM and the GI50 (UO-31 renal) was 307 nM. For the same compound, the TGI (UO-31 renal) was 1440 nM, the GI50 (CAKI-1 renal) was 64.4 nM and the TGI (CAKI-1 renal) was 12700 nM. It also gave a GI50 (NCI-H522 lung) of 130 nM, a TGI (NCI-H522 lung) of 286 nM and a GI50 (COLO 205 colon) of 349 nM. For the same compound, the TGI (COLO 205 colon) was 2020 nM, the GI50 (HCT-15 colon) was 440 nM and the TGI (HCT-15 colon) was 1800 nM. It also gave a GI50 (SF-295 CNS) of 348 nM, a TGI (SF-295 CNS) of 3540 nM and a GI50 (PC-3 prostate) of 1040 nM. It also gave a TGI (PC-3 prostate) of 20300 nM, a GI50 (HCT-116 colon) of 268 nM and a TGI (HCT-116 colon) of 8680 nM. For the same compound, the GI50 (SNB-19 CNS) was 1350 nM, the TGI (SNB-19 CNS) was greater than 100000 nM and the GI50 (NCI-H23 lung) was 78.5 nM. It also gave a TGI (NCI-H23 lung) of 257 nM, a GI50 (U251 glioblastoma) of 497 nM and a TGI (U251 glioblastoma) of 11400 nM. It also gave a GI50 (HOP-62 NSCLC) of 401 nM, a TGI (HOP-62 NSCLC) of 2150 nM and a GI50 (SN12C renal) of 328 nM. The TGI (SN12C renal) was 3890 nM, the GI50 ([…]-0 renal) was 243 nM and the TGI (786-0 renal) was 964 nM. It also gave a GI50 (NCI-H226 lung) of 1020 nM, a TGI (NCI-H226 lung) of 5550 nM and a GI50 (SK-MEL-5 melanoma) of 172 nM. The TGI (SK-MEL-5 melanoma) was 453 nM, the GI50 (SF-268 CNS) was 689 nM and the TGI (SF-268 CNS) was 13800 nM. For the same compound, the GI50 (SR leukemia) was 103 nM, the TGI (SR leukemia) was 224 nM and the GI50 (MOLT-4 leukemia) was 30.5 nM. For the same compound, the TGI (MOLT-4 leukemia) was 121 nM, the GI50 (SK-OV-3 ovarian) was 174 nM and the TGI (SK-OV-3 ovarian) was 1570 nM. For the same compound, the GI50 (KM12 colon) was 1130 nM, the TGI (KM12 colon) was 7260 nM and the GI50 (DU-145 prostate) was 241 nM. It also gave a TGI (DU-145 prostate) of 3890 nM, a GI50 (UACC-62 melanoma) of 371 nM and a TGI (UACC-62 melanoma) of 14700 nM. It also gave a GI50 (T-47D breast) of 5810 nM, a TGI (T-47D breast) of 21800 nM and a GI50 (K-562 leukemia) of 165 nM. The TGI (K-562 leukemia) was 354 nM, the GI50 (A549 NSCLC) was 1830 nM and the TGI (A549 NSCLC) was 12300 nM. It also gave a GI50 (UACC-257 melanoma) of 1950 nM, a TGI (UACC-257 melanoma) of 11300 nM and a GI50 (MDA-MB-435 melanoma) of 160 nM. The TGI (MDA-MB-435 melanoma) was 374 nM, the GI50 (BT-549 breast) was 137 nM and the TGI (BT-549 breast) was 348 nM. For the same compound, the GI50 (HT29 colon) was 211 nM, the TGI (HT29 colon) was 536 nM and the GI50 (OVCAR-3 ovarian) was 126 nM. For the same compound, the TGI (OVCAR-3 ovarian) was 371 nM, the GI50 (OVCAR-4 ovarian) was 196 nM and the TGI (OVCAR-4 ovarian) was 1040 nM. The GI50 (MCF7 breast) was 218 nM, the TGI (MCF7 breast) was 2190 nM and the GI50 (NCI-H322M lung) was 206 nM. For the same compound, the TGI (NCI-H322M lung) was 2030 nM, the GI50 (HOP-92 NSCLC) was 130 nM and the TGI (HOP-92 NSCLC) was 13400 nM. It also gave a GI50 (M14 melanoma) of 58.4 nM, a TGI (M14 melanoma) of 863 nM and a GI50 (TK-10 renal) of 160 nM. For the same compound, the TGI (TK-10 renal) was 1560 nM, the GI50 (MALME-3M melanoma) was 101 nM and the TGI (MALME-3M melanoma) was 484 nM. It also gave a GI50 (OVCAR-8 ovarian) of 288 nM, a TGI (OVCAR-8 ovarian) of 1050 nM and a GI50 (MDA-MB-468 breast) of 120 nM. It also gave a TGI (MDA-MB-468 breast) of 349 nM, a GI50 (EKVX NSCLC) of 324 nM and a TGI (EKVX NSCLC) of 2510 nM. For the same compound, the GI50 (SK-MEL-28 melanoma) was 2880 nM, the TGI (SK-MEL-28 melanoma) was 14300 nM and the GI50 (RXF 393 renal) was 26 nM. For the same compound, the TGI (RXF 393 renal) was 106 nM.
